Data from US11312709B2, “Ghrelin O-acyltransferase inhibitors” (Glaxosmithkline Intellectual Property Development Limited, priority 2018, dated 2022).

How the values were obtained:
human GOAT = human GOAT (Homo sapiens (Human), UniProt Q96T53); assay: GOAT TR-FRET (HTRF) inhibition assay, 384-well; format: biochemical; details: His-tag human GOAT membrane preparation from sf9 cells; read-out: hGOAT IC50
Protocol: Compounds contained herein were evaluated for their ability to inhibit the activity of GOAT. GOAT activity was assessed using a time-resolved fluorescence energy transfer (TR-FRET) assay in a 384-well format. His-tag human GOAT enzyme was in the form of a cell membrane preparation from sf9 cells infected with hGOAT-V5-His baculovirus. Varying concentrations of test compound with final DMSO concentration kept to 0.5% were added to membrane solution. Human GOAT membrane activity was established in a buffer having final concentration 0.25 mg/mL in 50 mM MOPS, pH7.5; 50 mM KCl; 0.1 mg/mL BSA; 50 μM CHAPS; and 2 mM EDTA. Substrate solution consisting of biotinylated ghrelin peptide (final concentration 100 nM), octanoyl coA (final concentration 2 μM) and palmitoyl CoA (final concentration 50 μM) was added to initiate the reaction. Plates were sealed, centrifuged for 1 minute at 2000 rpm, then incubated at 30° C. for 80 minutes with gentle shaking on an Eppendorf mix plate. Reaction termination and detection mix consisting of chicken anti-active ghrelin antibody (final concentration of 10 nM), Europium W1024-labeled streptavidin (final concentration of 4 nM), GOAT anti-chicken Dylight (final concentration of 12.5 nM), and GS[DAP-oc]-FL-amide inhibitor (final concentration of 1 μM) was added before further incubation for 40 minutes at 30° C. The plate was then read on an Envision in HTRF mode with excitation filter UV (TRF) 340 and first emission filter of APC 665 and a second emission filter of Europium 615. HTRF readings were acquired as per instrument defined LANCE-DELFIA protocol with a delay and window times of 50 μs for both; number of sequential windows: 1; time between flashes: 2000 μs between each of 100 flashes and 10 flashes for the second detector. The HTRF ratio was calculated directly by the instrument as the ratio of 665 window/615 window. Percent inhibition was calculated as 100−(100×(U−NC)/(PC−NC)) where U was the unknown value HTRF ratio (test compound value), NC was the negative control (100% inhibition value generated from a potent inhibitor), and PC was the positive control (100% activity generated from 0.5% DMSO vehicle). IC50 values were generated in GraphPad Prism (Version 4.03) using non-linear regression curve fit and sigmoidal dose response variable slope analysis.

acyl ghrelin [1] = assay: Acyl ghrelin reduction in mice (fasting induced); format: in vivo; details: 5 doses; for acyl ghrelin reduction: 3 h after final dose, p<0.05
Protocol: (§1) Normal mice were administered various oral doses of Example 1a on a bid basis for two days (4 doses). Food was withdrawn the evening of the second day after the fourth dose, and then the animals were administered a final dose the morning of the third day. Three hours after this fifth and final dose, blood was collected for ghrelin and acyl ghrelin measurement by ELISA.

acyl ghrelin [2] = assay: Single-dose PK/PD study, acyl ghrelin reduction in cynomolgus monkeys; format: in vivo; details: single oral dose 10 mg/kg, over the first 24 hours, fasted
Protocol: A single-dose PK/PD study was conducted in cynomolgus monkeys after a 10 mg/kg dose of Example 1a. On day zero, after an overnight fast, three monkeys were administered an oral dose of vehicle, and blood was collected pre-dose and 1, 3, 8, and 24 hours later. The 24 hour time point served as the pre-dose measurement for day 1 when, after an overnight fast, the monkeys were administered a single oral dose of 10 mg/kg Example 1a. Blood was collected at various time points (15 minutes, 30 minutes, 1 hour, 3 hours, 8 hours, 24 hours, 48 hours, 96 hours, and 168 hours) with overnight fasting throughout the study.

acyl ghrelin [3] = assay: Acyl ghrelin reduction in rats (fasting induced); format: in vivo, male SD rats; details: 10 mg/kg, same design as mice
Protocol: as §1
The same experimental design was conducted in rats administered 10 mg/kg of Example 1a.

acyl ghrelin [4] = assay: Acyl ghrelin reduction in mice on a high fat, high carb diet; format: in vivo, male C57BL/6 mice; details: HFHC diet; for reduction in acyl ghrelin levels compared to Rimonabant followed by vehicle: statistically significant
Protocol: Normal mice were acclimated to individual housing for two weeks on normal chow diet (20% calories from protein, 35% from carbohydrate, and 45% from fat). All mice except a control group were then switched to a high fat, high carb (HFHC) diet to cause obesity. Mice on the HFHC diet were administered 3 mg/kg Rimonabant once daily for seven days to cause weight loss except for one group that initiated 10 mg/kg Example 1a immediately. Mice that had been treated with Rimonabant were then administered various treatments in the evening for 21 days: vehicle, 3 mg/kg Rimonabant, or 10 mg/kg Example 1a. Mice were fasted overnight and administered a final treatment in the morning. Three hours later, blood was collected for plasma acyl ghrelin and des-acyl ghrelin determination.

[5] = normal mice, various oral doses bid, blood 3 h after final dose, fasted, ELISA
[6] = continuous treatment with 10 mg/kg Example 1a

Sequence of human GOAT (Q96T53 whole entry): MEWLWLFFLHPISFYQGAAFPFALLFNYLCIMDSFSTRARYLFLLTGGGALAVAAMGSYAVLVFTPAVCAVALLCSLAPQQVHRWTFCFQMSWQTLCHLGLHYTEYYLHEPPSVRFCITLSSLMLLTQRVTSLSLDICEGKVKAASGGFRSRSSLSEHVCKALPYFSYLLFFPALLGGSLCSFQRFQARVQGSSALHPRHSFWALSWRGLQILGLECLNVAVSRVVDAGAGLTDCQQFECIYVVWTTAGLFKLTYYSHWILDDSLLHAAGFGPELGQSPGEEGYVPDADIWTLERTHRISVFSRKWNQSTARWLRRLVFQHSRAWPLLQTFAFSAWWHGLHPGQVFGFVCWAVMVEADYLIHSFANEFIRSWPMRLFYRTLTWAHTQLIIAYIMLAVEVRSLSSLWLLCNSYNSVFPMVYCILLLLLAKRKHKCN

SMILES | IC50 (human GOAT) [nM] | other results
N#Cc1ccc2c(n1)CCC2Oc1cc(Cl)c2c(CC(=O)O)csc2c1 (racemic) [Example 8, 2-(4-chloro-6-((2-cyano-6,7-dihydro-5H-cyclopenta[b]pyridin-5-yl)oxy)benzo[b]thiophen-3-yl)acetic Acid] | < 50 | –
O=C(O)Cc1csc2cc(O[C@H]3CCc4ncccc43)cc(Cl)c12 [Example 1a, (S)-2-(4-chloro-6-((6,7-dihydro-5H-cyclopenta[b]pyridin-5-yl)oxy)benzo[b]thiophen-3-yl)acetic Acid] | < 50 | acyl ghrelin reduction (acyl ghrelin [1]; 1 mg/kg oral bid): statistically significant; acyl ghrelin reduction (acyl ghrelin [1]; 10 mg/kg oral bid): statistically significant; acyl ghrelin (dose response) (acyl ghrelin [1]; [5]): Dose-dependent decreases; des-acyl ghrelin (dose response) (acyl ghrelin [1]; [5]): increases; reduction in the acyl ghrelin AUC relative to vehicle treatment (acyl ghrelin [2]): 51%; acyl ghrelin levels (acyl ghrelin [3]): significantly reduced; des-acyl ghrelin levels (acyl ghrelin [3]): increased; reduction in acyl ghrelin levels compared to Rimonabant followed by vehicle (acyl ghrelin [4]; 10 mg/kg Example 1a for 21 days after 7 days of 3 mg/kg Rimonabant): 61%; des-acyl ghrelin levels relative to Rimonabant followed by vehicle treatment (acyl ghrelin [4]; both Example 1a treatments (10 mg/kg)): statistically significantly elevated; reduction in acyl ghrelin compared to vehicle treatment alone (acyl ghrelin [4]; [6]): 28%; reduction in acyl ghrelin levels compared to Rimonabant followed by vehicle (acyl ghrelin [4]; [6]): 57%
O=C(O)Cc1csc2cc(O[C@@H]3CCc4ncccc43)cc(Cl)c12 [Example 1b, (R)-2-(4-chloro-6-((6,7-dihydro-5H-cyclopenta[b]pyridin-5-yl)oxy)benzo[b]thiophen-3-yl)acetic acid] | < 5000 | –
Cc1ccc2c(n1)CC[C@@H]2Oc1cc(Cl)c2c(CC(=O)O)csc2c1 [Example 2a, (S)-2-(4-chloro-6-((2-methyl-6,7-dihydro-5H-cyclopenta[b]pyridin-5-yl)oxy)benzo[b]thiophen-3-yl)acetic acid] | < 50 | –
Cc1ccc2c(n1)CC[C@H]2Oc1cc(Cl)c2c(CC(=O)O)csc2c1 [Example 2b, (R)-2-(4-chloro-6-((2-methyl-6,7-dihydro-5H-cyclopenta[b]pyridin-5-yl)oxy)benzo[b]thiophen-3-yl)acetic acid] | < 5000 | –
O=C(O)Cc1csc2c(Cl)c(O[C@H]3CCc4nc(Cl)ccc43)cc(Cl)c12 [Example 3a] | < 500 | –
O=C(O)Cc1csc2c(Cl)c(O[C@@H]3CCc4nc(Cl)ccc43)cc(Cl)c12 [Example 3b] | < 50 | –
O=C(O)Cc1csc2c(Cl)c(O[C@H]3CCc4nc(C(F)(F)F)ccc43)cc(Cl)c12 [Example 4a] | < 500 | –
O=C(O)Cc1csc2c(Cl)c(O[C@@H]3CCc4nc(C(F)(F)F)ccc43)cc(Cl)c12 [Example 4b] | < 50 | –
O=C(O)Cc1csc2c(F)c(O[C@H]3COc4nc(C(F)(F)F)ccc43)cc(Cl)c12 [Example 5a] | < 5000 | –
O=C(O)Cc1csc2c(F)c(O[C@@H]3COc4nc(C(F)(F)F)ccc43)cc(Cl)c12 [Example 5b] | < 50 | –
Cc1c(C(=O)NN2CCCCC2)nn(-c2ccc(Cl)cc2Cl)c1-c1ccc(Cl)cc1 [Rimonabant, reference compound] | – | acyl ghrelin levels (so in the source); context is des-acyl ghrelin, FIG. 8) (acyl ghrelin [4]; 3 mg/kg Rimonabant treatment alone, not as much as with Example 1a): increased

Continued, in another order:

IC50 (human GOAT) [nM] | SMILES | other results
< 50 | O=C(O)Cc1csc2cc(O[C@H]3COc4ncccc43)cc(Cl)c12 [Example 6a] | –
< 50 | O=C(O)Cc1csc2cc(O[C@@H]3COc4ncccc43)cc(Cl)c12 [Example 6b] | –
< 5000 | O=C(O)Cc1csc2c(Cl)c(O[C@H]3COc4ncccc43)cc(Cl)c12 [Example 7a] | –
< 50 | O=C(O)Cc1csc2c(Cl)c(O[C@@H]3COc4ncccc43)cc(Cl)c12 [Example 7b] | –
< 500 | NC(=O)c1ccc2c(n1)CC[C@@H]2Oc1cc(Cl)c2c(CC(=O)O)csc2c1 [Example 9a] | –
< 50 | NC(=O)c1ccc2c(n1)CC[C@H]2Oc1cc(Cl)c2c(CC(=O)O)csc2c1 [Example 9b] | –
